For 19 compounds, IC50 results are on record in ChEMBL document CHEMBL1909562, “Carbazole-containing arylcarboxamides as BACE1 inhibitors” (Bioorg Med Chem Lett, 2011).

One may read the pIC50 as the IC50 on a negative log10 scale, so that one unit is a factor of ten.

SMILES strings stand for the structures. pIC50: −log10 of the molar value. Some results are limits rather than exact numbers.

For this assay, the target named is Beta-secretase 1 (Homo sapiens, UniProt P56817). Briefly: Inhibition of BACE1 by fluorescence-based assay.
Sequence of Beta-secretase 1 (P56817 whole entry): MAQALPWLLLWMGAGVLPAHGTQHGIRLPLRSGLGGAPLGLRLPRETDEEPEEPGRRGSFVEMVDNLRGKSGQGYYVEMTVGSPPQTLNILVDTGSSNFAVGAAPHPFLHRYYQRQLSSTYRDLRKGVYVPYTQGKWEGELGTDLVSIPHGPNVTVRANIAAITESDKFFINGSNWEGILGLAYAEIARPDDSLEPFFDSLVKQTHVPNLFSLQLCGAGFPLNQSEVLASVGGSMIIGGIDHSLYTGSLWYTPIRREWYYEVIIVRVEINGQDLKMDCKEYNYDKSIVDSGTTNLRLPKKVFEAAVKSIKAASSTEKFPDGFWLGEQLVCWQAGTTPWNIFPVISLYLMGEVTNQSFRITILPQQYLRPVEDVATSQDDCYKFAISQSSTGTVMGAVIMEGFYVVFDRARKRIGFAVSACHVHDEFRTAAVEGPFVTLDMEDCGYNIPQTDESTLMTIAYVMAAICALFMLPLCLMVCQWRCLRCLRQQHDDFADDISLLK
Compound `O=C(c1ccccc1)N(CC(O)Cn1c2ccccc2c2ccccc21)c1ccccc1` (centres undefined) gave a pIC50 of under 5.00.

As for `O=C(c1ccc(Cl)cc1)N(CC(O)Cn1c2ccccc2c2ccccc21)c1ccccc1` (centres undefined), the pIC50 was 5.33.

The compound `COc1ccc(C(=O)N(CC(O)Cn2c3ccccc3c3ccccc32)c2ccccc2)cc1` (centres undefined) had a pIC50 of 5.42.

As to `O=C(c1ccc(Cl)c(Cl)c1)N(CC(O)Cn1c2ccccc2c2ccccc21)c1ccccc1` (centres undefined), the pIC50 is 5.60.

The compound `O=C(c1ccccc1)N(CC(O)Cn1c2ccccc2c2ccccc21)c1ccc(C(F)(F)F)cc1` (centres undefined) gave a pIC50 of under 5.00.

Regarding `O=C(c1ccccc1)N(CC(O)Cn1c2ccccc2c2ccccc21)c1ccc([N+](=O)[O-])cc1` (centres undefined), the pIC50 was under 5.00.

The compound `O=C(c1ccccc1)N(CC(O)Cn1c2ccccc2c2ccccc21)c1ccc(Cl)cc1` (centres undefined) showed a pIC50 of under 5.00.

In turn, `O=C(c1ccccc1)N(CC(O)Cn1c2ccccc2c2ccccc21)c1ccc(F)cc1` (centres undefined) had a pIC50 of under 5.00.

`Cc1ccc(N(CC(O)Cn2c3ccccc3c3ccccc32)C(=O)c2ccccc2)cc1` (centres undefined): the pIC50 is under 5.00.

The compound `O=C(c1ccccc1)N(Cc1ccccc1)CC(O)Cn1c2ccccc2c2ccccc21` (centres undefined) gave a pIC50 of under 5.00.

Consider `O=C(c1ccc(Cl)cc1)N(Cc1ccccc1)CC(O)Cn1c2ccccc2c2ccccc21` (centres undefined), for which the negative-log IC50 (pIC50) is under 5.00.

Regarding `COc1ccc(C(=O)N(Cc2ccccc2)CC(O)Cn2c3ccccc3c3ccccc32)cc1` (centres undefined), the pIC50 was under 5.00.

With `O=C(c1ccc(Cl)c(Cl)c1)N(Cc1ccccc1)CC(O)Cn1c2ccccc2c2ccccc21` (centres undefined), the pIC50 is under 5.00.

`O=C(c1ccccc1)N(Cc1ccc(Cl)cc1)CC(O)Cn1c2ccccc2c2ccccc21` (centres undefined) showed a pIC50 of under 5.00.

In turn, `Cc1ccc(CN(CC(O)Cn2c3ccccc3c3ccccc32)C(=O)c2ccccc2)cc1` (centres undefined) had a pIC50 of under 5.00.

Consider `COc1ccc(CN(CC(O)Cn2c3ccccc3c3ccccc32)C(=O)c2ccccc2)cc1` (centres undefined), for which the pIC50 was under 5.00.

As to `O=C(c1ccccc1)N(CCc1ccccc1)CC(O)Cn1c2ccccc2c2ccccc21` (centres undefined), the pIC50 is 5.32.

The compound `O=C(c1ccccc1)N(CC(O)Cn1c2ccccc2c2ccccc21)C1CCCCC1` (centres undefined) had a pIC50 of under 5.00.

As for `OC(CNc1cccc2ccccc12)Cn1c2ccccc2c2ccccc21` (centres undefined), the pIC50 is 5.52.
